# In PMC9214608 (RSC Advances, 2022):
# System: MERS-CoV 3CL^pro
# Test: not given
# Conditions: cited from earlier work
row,Structure (SMILES),Inhibition of MERS-CoV 3CL^pro
1,COc1cc(O)cc(O)c1C(=O)/C=C/c1ccc(O)cc1 [Helichrysetin],able to inhibit MERS-CoV 3CL^pro

# Target: SARS-CoV-2 main protease (M^pro or 3CL^pro) (Severe acute respiratory syndrome coronavirus 2, UniProt P0DTD1)
# Test: biochemical
# Conditions: In vitro SARS-COV-2 M^pro IC50
row,Structure (SMILES),IC50
1,"C=C(C)C(C=C[C@@H](C)[C@H]1CC[C@H]2[C@@H]3CC=C4CC(O)CC[C@]4(C)[C@H]3CC[C@]12C)CC (stereo partly drawn) [Compound 1, 24-β-ethyl-cholesta-5(6),22(23),25(26)-triene-3-ol]",12.5 ± 0.64 µM

# Same assay, conditions: In vitro SARS-COV-2 M^pro IC50, FRET-based assay; mean ± SD
row,Structure (SMILES),IC50
1,"C[C@H]1[C@H](C)CC[C@]2(C)CC[C@]3(C)C(=CC[C@@H]4[C@@]5(C)CC[C@H](O)C(C)(C)[C@@H]5CC[C@]43C)[C@H]12 [Compound 2, α-amyrin]",4.18 ± 0.21 µM
2,"CCCCC/C=C\C/C=C\CCCCCCCC(=O)O [Compound 3, linoleic acid]",20.7 ± 1.05 µM
3,"COc1cc(C2CC(=O)c3c(O)cc(O)c(OC)c3O2)ccc1O (stereo not drawn) [Compound 8, 5,7,4′-trihydroxy-8,3′-dimethoxy flavanone]",27.9 ± 1.42 µM
4,"COc1c(O)cc2c(c1O)C(=O)CC(c1ccc(O)cc1)O2 (stereo not drawn) [Compound 9, 5,7,4′-trihydroxy-6-methoxy flavanone]",11.8 ± 0.6 µM
5,"COc1cc(-c2cc(=O)c3c(O)cc(OC)c(OC)c3o2)ccc1O [Compound 10, 4′,5-dihydroxy-3′,7,8-trimethoxyflavone]",12.8 ± 0.65 µM
6,"COc1cc(-c2cc(=O)c3c(O)cc(O)c(OC)c3o2)cc(OC)c1OC [Compound 11, 5,7-dihydroxy-3′,4′,5′,8-tetramethoxy flavone]",5.07 ± 0.26 µM
7,"COc1c(O)cc2c(c1O)C(=O)CC(c1cc(O)cc(O)c1)O2 (stereo not drawn) [Compound 13, 3′,5′,5,7-tetrahydroxy-6-methoxyflavanone]",5.56 ± 0.28 µM
8,"O=c1cc(-c2ccc(O)c(O)c2)oc2c([C@@H]3O[C@H](CO)[C@@H](O)[C@H](O)[C@H]3O)c(O)cc(O)c12 [Compound 16, orientin]",27.5 ± 1.4 µM
9,"Cc1cccc(C)c1OCC(=O)N[C@@H](Cc1ccccc1)[C@@H](O)C[C@H](Cc1ccccc1)NC(=O)[C@H](C(C)C)N1CCCNC1=O [Lopinavir, reference compound]",0.225 ± 0.01 µM

# Same assay, conditions: read-out: In vitro SARS-COV-2 M^pro IC50
row,Structure (SMILES),IC50
1,"O=c1cc(-c2ccc(O)c(O[C@@H]3O[C@H](CO)[C@@H](O)[C@H](O)[C@H]3O)c2)oc2cc(O)cc(O)c12 [Compound 17, luteolin-3′-O-β-D-glucoside]",10.1 ± 0.52 µM
